{"source": "patent US20160303184A1", "about": "“VANCOMYCIN-SUGAR CONJUGATES AND USES THEREOF” (JAWAHARLAL NEHRU CENTRE FOR ADVANCED SCIENTIFIC RESEARCH …, priority 2013, published 2016)", "key": {"[1]": {"tested_on": "Vancomycin intermediate resistant S. aureus", "experiment": "MIC, micro-dilution broth, VISA", "assay_type": "cell-based", "settings": "VISA", "method": "(§1) All test compounds were assayed in a micro-dilution broth format. Stock solutions were made by serially diluting the compounds using autoclaved millipore water or broth media. The antibacterial activity of the compounds was determined against methicillin-sensitive S. aureus (MSSA), methicillin-resistant S. aureus (MRSA), vancomycin-intermediate-resistant S. aureus (VISA), vancomycin-sensitive E. faecium (VSE) and vancomycin-resistant E. faecium (VRE). Bacteria, to be tested, were grown for about 10 h in the suitable media, MSSA, MRSA and VISA were grown in yeast-dextrose broth (about 1 g of beef extract, about 2 g of yeast extract, about 5 g of peptone and about 5 g of NaCl in about 1000 mL of sterile distilled water (pH-7)). For solid media, about 5% agar was used along with above mentioned composition. VSE and VRE were cultured in brain heart infusion broth (Himedia). The bacterial samples were freeze dried and stored at −80° C. About 5 μL of these stocks were added to about 3 mL of the nutrient broth and the culture was grown for about 6 h at about 37° C. prior to the experiments. This 6 h grown culture gives about 10^9 cfu/mL and this was determined by spread plating method. The 6 h grown culture was diluted to give effective cell concentration of about 10^5 cfu/mL which was then used for determining MIC. Compounds were serially diluted, in sterile water (2 fold dilution is employed) in a way that the working concentration was about 10 μM for MSSA, MRSA, and VSE while for VRE and VISA it was about 100 μM. About 50 μL of these serial dilutions were added to the wells of 96 well plate followed by the addition of about 150 μL of bacterial solution. The plates were then incubated at about 37° C., 150 rpm in the incubator and O.D at 600 nm was recorded at an interval of about 10 h and 24 h using TECAN (Infinite series, M200 pro) Plate Reader. Each concentration had triplicate values and the whole experiment was done at least twice and the MIC value was determined by taking the average of triplicate. O. D. values for each concentration and plotting it against concentration. The data was then subjected to sigmoidal fitting. From the curve the MIC value was determined, as the point in the curve where the O. D. was similar to that of control having no bacteria."}, "[2]": {"experiment": "Systemic toxicity (LD50)", "set-up": "species or system CD-1 female mice", "settings": "female, CD-1, mouse, in vivo, iv, single-dose i.v., mice", "method": "Systemic toxicity was examined after i.v injection of compound 7 to CD-1 female mice. Each mouse was injected with a 0.2 ml of freshly prepared compound 7 solution in saline. The doses of the compound administered per group were according to OECD guidelines (OECD, 2005)."}, "[3]": {"tested_on": "Vancomycin-resistant E. faecalis (VanA, ATCC 51575)", "experiment": "MIC, micro-dilution broth, VRE (VanB)", "assay_type": "cell-based", "settings": "Enterococcus faecalis, read-out: MIC VRE (VanB)"}, "[4]": {"tested_on": "methicillin-resistant S. haemolyticus clinical isolate", "experiment": "MIC, clinical isolate of methicillin-resistant S. haemolyticus", "assay_type": "cell-based", "settings": "Staphylococcus haemolyticus, read-out: MIC S. haemolyticus"}, "[5]": {"experiment": "Acute toxicity (blood biochemistry, liver and kidney histology)", "assay_type": "in vivo, mice", "settings": "12 mg/kg i.v.", "method": "For the evaluation of the acute toxicity, two groups of 10 mice each received intravenous injection of compound 7 at 12 mg/kg in 0.2 ml of sterilized saline. 10 mice were sacrificed at 48 h and the rest mice at 14 days to collect blood samples for analysis of biochemical parameters such as alanine transaminase (ALT), alkaline phosphatase (ALP), urea nitrogen, creatinine, sodium ion, potassium ion and chloride ion levels. Blood samples were analyzed at Gokula Metropolis clinical laboratory, Bengaluru, India. And also to examine the adverse effects of compound 7 in tissue level, we have isolated liver and kidney organs in 10% neutral formalin. Tissues were processed by dehydration in ascending grades of ethyl alcohol, clearing in xylol, embedding in paraffin wax and prepared sections of 5 μm thickness. Then paraffin sections were stained using haematoxylin and eosin, and observed under light microscope for histological changes."}, "[6]": {"tested_on": "methicillin-resistant S. epidermidis clinical isolate", "experiment": "MIC, clinical isolate of methicillin-resistant S. epidermidis", "assay_type": "cell-based", "settings": "Staphylococcus epidermidis, read-out: MIC S. epidermidis"}, "[7]": {"tested_on": "Vancomycin-resistant E. faecium (VanA, ATCC 51559)", "experiment": "MIC, micro-dilution broth, VRE (VanA)", "assay_type": "cell-based", "method": "as §1"}, "[8]": {"tested_on": "methicillin-resistant vancomycin-intermediate S. aureus (MR-VISA)", "experiment": "Time-kill assay", "assay_type": "cell-based", "settings": "2 μM and 4 μM", "method": "The bactericidal activity was assessed by the kinetics or the rate at which it affects the killing action of the compound. Briefly methicillin-resistant vancomycin-intermediate S. aureus (MR-VISA) grown in Yeast-Dextrose broth. A starting inoculum of 1.6×10^8 CFU/ml was used as initial bacterial colony count. Vancomycin and compound 7 having final concentrations of 2 μM and 4 μM were inoculated with MR-VISA suspensions having starting inocula of 1.6×10^8 CFU/ml. Bacterial suspension containing specified concentrations of the compound along with negative control (which contains only 0.9% Saline) was incubated at 37° C. with shaking. Aliquots (20 μl) were removed from the cultures at different time intervals and were serially diluted 10-fold in 0.9% saline and plated onto sterile Yeast-Dextrose agar medium. The number of viable cells was determined by plating the 10-fold serial dilution of each sample onto Yeast-dextrose agar medium. Plates were then incubated for 24 h at 37° C., CFU was counted and the total bacterial log 10 CFU/ml was determined."}, "[9]": {"tested_on": "Vancomycin-sensitive E. faecium (ATCC 19634)", "experiment": "MIC, micro-dilution broth, VSE", "assay_type": "cell-based", "settings": "Enterococcus faecium, ATCC19634, read-out: MIC VSE", "method": "as §1"}, "[10]": {"tested_on": "Methicillin-resistant S. aureus (ATCC 33591)", "experiment": "MIC, micro-dilution broth, MRSA", "assay_type": "cell-based", "settings": "Staphylococcus aureus, read-out: MIC MRSA", "method": "as §1"}, "[11]": {"tested_on": "VISA", "experiment": "Ex-vivo whole blood assay", "assay_type": "cell-based, S. aureus", "settings": "3 h incubation in 90% human whole blood", "method": "Ex-vivo whole blood assay was performed to compare the abilities of these compounds to retain activity in complex media. To 30 μL of VISA in saline (0.9% NaCl; 10^6 CFU/mL) 10 μL of test compounds (vancomycin and compound 7) and 270 μL of fresh human whole blood were added and incubated, at 37° C. for about 3 h. After the incubation period, antibacterial activity was determined by finding the bacterial titer in the infected blood."}}, "note": "“Also recorded” adds a separate entry of the source."}
{"compound": "CCCCCCCCCCN[C@]1(C)C[C@H](OC2C(O)[C@@H](O)C(CO)O[C@@H]2Oc2c3cc4cc2Oc2ccc(cc2Cl)[C@@H](O)[C@@H](NC(=O)[C@@H](CC(C)C)NC)C(=O)N[C@@H](CC(N)=O)C(=O)N[C@H]4C(=O)N[C@H]2C(=O)N[C@H](C(=O)N[C@H](C(=O)NCCCNC(=O)[C@H](O)[C@@H](O)[C@H](OC4OC(CO)C(O)C(O)[C@H]4O)[C@H](O)CO)c4cc(O)cc(O)c4-c4cc2ccc4O)[C@H](O)c2ccc(c(Cl)c2)O3)OC(C)[C@@H]1O", "note": "(some centres unmarked) [Compound 7]", "values": [{"measurement": "MIC", "setting": "[1]; Staphylococcus aureus, read-out: MIC VISA", "value": 0.2, "unit": "µM"}, {"measurement": "fold more active than vancomycin", "setting": "[1]", "value": "about 65 fold"}, {"measurement": "LD50 at 14 days", "setting": "[2]", "value": "> 100", "unit": "mg/kg"}, {"measurement": "MIC", "setting": "[3]", "value": 1, "unit": "µM"}, {"measurement": "MIC", "setting": "[4]", "value": 0.41, "unit": "µM"}, {"measurement": "acute damage to liver and kidney functions", "setting": "[5]; 48 h and 14 days", "value": "did not cause any significant acute damage; also recorded: no significant acute damage"}, {"measurement": "Chloride ion", "setting": "[5]; 48 h post-treatment", "value": "112.9 ± 1.52", "unit": "mmol/L"}, {"measurement": "Kidney Creatinine", "setting": "[5]; 48 h post-treatment", "value": "0.2 ± 0.133", "unit": "mg/dL"}, {"measurement": "Liver ALT", "setting": "[5]; 48 h post-treatment", "value": "55.23 ± 5.24", "unit": "U L^−1"}, {"measurement": "Potassium ion", "setting": "[5]; 48 h post-treatment", "value": "6.86 ± 0.81", "unit": "mmol/L"}, {"measurement": "Sodium ion", "setting": "[5]; 48 h post-treatment", "value": "143.63 ± 1.65", "unit": "mmol/L"}, {"measurement": "Urea Nitrogen", "setting": "[5]; 48 h post-treatment", "value": "19.52 ± 3.25", "unit": "mg/dL"}, {"measurement": "Chloride ion", "setting": "[5]; 14 days post treatment", "value": "110.85 ± 2.16", "unit": "mmol/L"}, {"measurement": "Kidney Creatinine", "setting": "[5]; 14 days post treatment", "value": "0.22 ± 0.1", "unit": "mg/dL"}, {"measurement": "Liver ALT", "setting": "[5]; 14 days post treatment", "value": "53.28 ± 3.78", "unit": "U L^−1"}, {"measurement": "Potassium ion", "setting": "[5]; 14 days post treatment", "value": "6.75 ± 0.833", "unit": "mmol/L"}, {"measurement": "Sodium ion", "setting": "[5]; 14 days post treatment", "value": "143.04 ± 0.71", "unit": "mmol/L"}, {"measurement": "Urea Nitrogen", "setting": "[5]; 14 days post treatment", "value": "24.46 ± 4.93", "unit": "mg/dL"}, {"measurement": "gross anatomical and histopathological examination of liver and kidney sections", "setting": "[5]; compared to control", "value": "no significant changes"}, {"measurement": "MIC", "setting": "[6]", "value": 0.3, "unit": "µM"}, {"measurement": "MIC", "setting": "[7]; Enterococcus faecium, read-out: MIC VRE (VanA)", "value": 1, "unit": "µM"}, {"measurement": "fold higher activity than vancomycin", "setting": "[7]; VRE (VanA phenotype)", "value": "> 700", "unit": "fold"}, {"measurement": "killing kinetics", "setting": "[8]", "value": "rapid"}, {"measurement": "MIC", "setting": "[9]", "value": 0.15, "unit": "µM"}, {"measurement": "MIC", "setting": "[10]", "value": 0.3, "unit": "µM"}, {"measurement": "bactericidal activity in whole blood", "setting": "[11]", "value": "rapid bactericidal activity"}]}
